Test results as given in publication PMC12525657 (Molecules, 2025).
pKd: −log10 of the molar value.

Each compound was assayed against NP (Influenza A virus, UniProt P15682) (assay: biochemical).
Type: binding

NP, sequence (P15682 whole entry): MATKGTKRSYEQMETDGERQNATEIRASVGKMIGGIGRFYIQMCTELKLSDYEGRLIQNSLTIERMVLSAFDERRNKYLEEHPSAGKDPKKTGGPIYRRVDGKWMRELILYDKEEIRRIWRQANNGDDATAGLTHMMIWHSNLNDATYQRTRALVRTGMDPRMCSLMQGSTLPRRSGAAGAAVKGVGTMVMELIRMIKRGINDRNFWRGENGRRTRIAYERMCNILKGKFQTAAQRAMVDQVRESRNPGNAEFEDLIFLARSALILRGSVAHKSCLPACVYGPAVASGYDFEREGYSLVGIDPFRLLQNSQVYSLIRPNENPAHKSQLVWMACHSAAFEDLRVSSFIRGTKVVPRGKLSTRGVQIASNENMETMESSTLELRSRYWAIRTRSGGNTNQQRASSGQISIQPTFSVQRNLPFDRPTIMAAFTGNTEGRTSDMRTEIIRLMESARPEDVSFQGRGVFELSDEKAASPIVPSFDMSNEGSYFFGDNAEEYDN

| Structure (SMILES) | pKd | binding affinity for NP relative to nucleozin |
| --- | --- | --- |
| O=C(O)CCC(=O)Nc1nc2n(n1)C(c1ccc(Cl)cc1)C=C(c1ccc(Cl)cc1)N2 (centres unmarked) [Compound 13] | 4.42 | higher binding affinity for NP than nucleozin |
| O=C(O)CCC(=O)N1N=C(c2c(O)nc3ccc(Br)cc3c2-c2ccccc2)CC1c1ccco1 (centres unmarked) [Compound 1] | 3.82 | higher binding affinity for NP than nucleozin |
| COc1ccc([C@@H]2C=C(c3ccc(Cl)cc3)Nc3nc(NC(=O)CCCC(=O)O)nn32)cc1 [Compound 12] |  | higher binding affinity for NP than nucleozin |
| COc1ccc([C@H]2CC(c3c(-c4ccccc4)c4cc(Br)ccc4[nH]c3=O)=NN2C(=O)CCC(=O)O)cc1 [Compound 3] | 3.68 | higher binding affinity for NP than nucleozin |
| COc1ccc(C2CC(c3c(-c4ccccc4)c4cc(Cl)ccc4[nH]c3=O)=NN2C(=O)CCC(=O)O)cc1 (centres unmarked) [Compound 8] | 4.11 | higher binding affinity for NP than nucleozin |
| O=C(O)CCCC(=O)Nc1nc2n(n1)[C@H](c1ccccc1)C=C(c1ccc(Cl)cc1)N2 [Compound 14] | 4.16 | higher binding affinity for NP than nucleozin |
| Cc1ccc([C@@H]2C=C(c3ccc(Cl)cc3)Nc3nc(NC(=O)CCCC(=O)O)nn32)cc1 [Compound 4] |  | higher binding affinity for NP than nucleozin |
| O=C(O)CCC(=O)N1N=C(c2c(-c3ccccc3)c3cc(Br)ccc3[nH]c2=O)C[C@@H]1c1ccc([N+](=O)[O-])cc1 [Compound 9] |  | higher binding affinity for NP than nucleozin |
| Cc1onc(-c2ccccc2)c1C(=O)N1CCN(c2ccc([N+](=O)[O-])cc2Cl)CC1 [nucleozin, reference compound] | 5.01 |  |
